{"source": "patent US20150072315A1", "about": "“Formulations and kit for biometric deposition of apatite on teeth” (Heraeus Kulzer GmbH, priority 2013, published 2015)", "key": {"[1]": {"test": "staining test for dentine-sealing effect (rhodamine, colorimetry)", "protocol": "The components were produced as described in example 1.\nAfter the application of the gels, a staining test was used to check if a dentine-sealing effect occurred. Acids that were insoluble at the requisite conditions were not tested further.\nPrinciple of the staining test: The samples are measured by colorimetry on the coated and uncoated side after staining with 1% rhodamine solution using a Spectraflash 600 Plus two-channel spectrometer with the CIE L*a*b* system and aperture 3 mm X4SAV. The difference in colour is reported as the delta value (colour difference).\nTris buffer (pH value: 7.2 to 9.0) was used in the Ca gel. A sodium acetate buffer (pH value: 3.7 to 5.7) was used in the P gel."}, "[2]": {"test": "solubility and appearance of pre-treatment, calcium and phosphate solutions made with the acid", "protocol": "For component A containing phosphate ions, a solution containing 29.5 g NaH2PO4, 33 g Olaflur, and 27.0 g lactic acid was produced. […] A total of 24 ml of the solution and 6 g glycerol and 10 g of 300 Bloom pork rind gelatine were processed while heating to form a viscous solution. A small amount of liquid was placed in a template with a wall thickness of 500 μm and exposed to 2 bar of pressure. After solidification, the strips were removed from the template and cut into 1×1 cm squares.\nFor component B containing calcium ions, a calcium chloride solution containing 29.4 g calcium chloride dihydrate and 6.3 g lactic acid was prepared. […] The solution was topped up to 200 ml with de-ionized water. In order to produce the gel, 21.6 g of the solution and 8.24 g glycerol and 8 g calcium sulfate and 13.6 g 300 Bloom gelatine were mixed and heated. The liquid gel was then spread with a squeegee to a thickness of 1 mm or pressed in a template with a wall thickness of 1 mm. After solidification, the strips were cut into 1×1 cm squares. For the pre-treatment solution (mouthwash), a 0.1 mol Tris buffer was added to a 1 molar calcium chloride solution and the pH was adjusted to 9.0."}, "[3]": {"conditions": "colour difference coated vs uncoated side after staining with 1% rhodamine solution, CIE L*a*b*"}, "[4]": {"conditions": "as E1, P gel combined with acetic acid-Ca gel"}}, "data": [{"smiles": "N[C@@H](CC(=O)O)C(=O)O", "note": "[Aspartic acid]", "values": [{"measurement": "deposition after application of the kit", "setting": "[1]", "value": "show deposition"}, {"measurement": "Functional test (delta E)", "setting": "[1]; [3]", "value": "45.96 ± 2.63"}]}, {"smiles": "O=C(O)CO", "note": "[Glycolic acid]", "values": [{"measurement": "deposition after application of the kit", "setting": "[1]", "value": "show deposition"}, {"measurement": "Functional test (delta E)", "setting": "[1]; [4]", "value": "35.32 ± 4.19"}]}, {"smiles": "O=C1O[C@H]([C@@H](O)CO)C(O)=C1O", "note": "[Ascorbic acid]", "values": [{"measurement": "deposition after application of the kit", "setting": "[1]", "value": "show deposition"}, {"measurement": "Functional test (delta E)", "setting": "[1]; [3]", "value": "56.64 ± 9.85"}]}, {"smiles": "O=C(O)CC(O)C(=O)O", "note": "(stereo not drawn) [Malic acid]", "values": [{"measurement": "deposition after application of the kit", "setting": "[1]", "value": "show deposition"}, {"measurement": "Functional test (delta E)", "setting": "[1]; [3]", "value": "42.41 ± 5.39"}, {"measurement": "solubility of the calcium salt of the acid", "setting": "[2]", "value": "sufficiently soluble"}, {"measurement": "Pre-treatment solution: solubility/appearance", "setting": "[2]; pH 8.5", "value": "precipitation"}, {"measurement": "Pre-treatment solution: solubility/appearance", "setting": "[2]; pH 9.02", "value": "pH 9.02 clear"}, {"measurement": "Pre-treatment solution: solubility/appearance", "setting": "[2]; pH 9.53", "value": "pH 9.53 clear"}]}, {"smiles": "O=C(O)C(CO)c1ccccc1", "note": "(stereo not drawn) [Tropic acid]", "values": [{"measurement": "solubility of the acid (merged cell spanning the solution columns)", "setting": "[2]", "value": "insoluble"}]}, {"smiles": "O=C(O)c1ccccc1O", "note": "[Salicylic acid]", "values": [{"measurement": "solubility of the acid (merged cell spanning the solution columns)", "setting": "[2]", "value": "insoluble"}]}, {"smiles": "O=C(O)c1ccc(C(=O)O)c(C(=O)O)c1", "note": "[Trimellitic acid]", "values": [{"measurement": "Functional test (delta E)", "setting": "[1]; [4]", "value": "42.05 ± 11.24"}, {"measurement": "Ca gel solution: solubility/appearance", "setting": "[2]", "value": "precipitation"}]}, {"smiles": "CC(O)C(=O)O", "note": "(stereo not drawn) [Lactic acid]", "values": [{"measurement": "deposition after application of the kit", "setting": "[1]", "value": "show deposition"}, {"measurement": "Functional test (delta E)", "setting": "[1]; [3]", "value": "49.83 ± 4.02"}]}]}
